Assay: Inhibition of L1 (unknown origin) using cefazolin as substrate incubated for 5 mins by Agilent UV8453 spectrometric analysis

SMILES: O=C(NNC(=S)S)c1ccccc1O
- IC50: 380 nM

Reference: BindingDB's records for PubMed 34225181 (University of Electronic Science and Technology of China, 2021)
